Results published in patent US20080153896A1, “Polymorphic Forms of an HMG-CoA Reductase Inhibitor and Uses Thereof” (priority 2006, published 2008).

Assay: Stability (integrity) testing of amorphous and polymorphic form under storage conditions, RP-HPLC
Format: physicochemical
Parameters: Impurity RRT 1.104 / Impurity RRT 1.698: unit not given beside the values
Procedure: The integrity of the different forms of the (3R, 5R)-7-[2-(4-fluorophenyl)-5-isopropyl-3-phenyl-4-[(4-hydroxymethylphenylamino)carbonyl]-pyrrol-1-yl]-3,5-dihydroxy-heptanoic acid, hemi calcium salt, was tested under different atmospheric conditions to determine the stability of the amorphous and polymorphic form of the drug in various storage environments. Reversed Phase-HPLC (RP-HPLC) was used to separate (3R, 5R)-7-[2-(4-fluorophenyl)-5-isopropyl-3-phenyl-4-[(4-hydroxymethylphenylamino)carbonyl]-pyrrol-1-yl]-3,5-dihydroxy-heptanoic acid, hemi calcium salt, from smaller molecules representing breakdown products as well as oxidized drug. The relative amount of the drug was reported as a percent of total absorption by UV. The total peak area of all UV absorption impurities was used to define total impurity of the drug. Impurities are defined by their relative retention time (RRT) compared to native drug. Samples were injected onto a C18 column using standard temperature, gradient and run-time conditions.
The results of this integrity testing for the amorphous form of (3R, 5R)-7-[2-(4-fluorophenyl)-5-isopropyl-3-phenyl-4-[(4-hydroxymethylphenylamino)carbonyl]-pyrrol-1-yl]-3,5-dihydroxy-heptanoic acid, hemi calcium salt, is shown in Table 5.
Three separate batches of polymorphic Form I of (3R, 5R)-7-[2-(4-fluorophenyl)-5-isopropyl-3-phenyl-4-[(4-hydroxymethylphenylamino)carbonyl]-pyrrol-1-yl]-3,5-dihydroxy-heptanoic acid, hemi calcium salt, were prepared and tested under the same atmospheric conditions described for the amorphous form.

[1] = 25° C./60% RH 12M, hemi calcium salt
[2] = 30° C./65% RH 1M, hemi calcium salt
[3] = 30° C./65% RH 2M, hemi calcium salt
[4] = 30° C./65% RH 3M, hemi calcium salt
[5] = 30° C./65% RH 6M, hemi calcium salt
[6] = 30° C./65% RH 9M, hemi calcium salt
[7] = 30° C./65% RH 12M, hemi calcium salt
[8] = 40° C./75% RH 1M, hemi calcium salt
[9] = 40° C./75% RH 2M, hemi calcium salt
[10] = 40° C./75% RH 3M, hemi calcium salt
[11] = 40° C./75% RH 6M, hemi calcium salt
[12] = Initial, listed as Batch 2 of Polymorphic Form I, hemi calcium salt

CC(C)c1c(C(=O)Nc2ccc(CO)cc2)c(-c2ccccc2)c(-c2ccc(F)cc2)n1CC[C@@H](O)C[C@@H](O)CC(=O)[O-].CC(C)c1c(C(=O)Nc2ccc(CO)cc2)c(-c2ccccc2)c(-c2ccc(F)cc2)n1CC[C@@H](O)C[C@@H](O)CC(=O)[O-].[Ca+2] [PP00105, (3R, 5R)-7-[2-(4-fluorophenyl)-5-isopropyl-3-phenyl-4-[(4-hydroxymethylphenylamino)carbonyl]-pyrrol-1-yl]-3,5-dihydroxy-heptanoic acid, hemi calcium salt]
Impurity RRT 1.439 (25° C./60% RH 12M): 0.152 | Impurity RRT 1.596 (25° C./60% RH 12M): 0.046 | Impurity RRT 1.698 (25° C./60% RH 12M): 0.053 | Assay [1]: 98.25 % W/W | Highest Impurity [1]: 0.407 | Impurity RRT 0.935 [1]: 0.365 | Impurity RRT 1.045 [1]: 0.407 | Impurity RRT 1.640 [1]: 0.052 | Total Impurity [1]: 1.522 | Water [1]: 5.02 % W/W | Description (30° C./65% RH 1M): White | Impurity RRT 1.096 (30° C./65% RH 1M): 0.24 | Impurity RRT 1.439 (30° C./65% RH 1M): 0.151 | Impurity RRT 1.596 (30° C./65% RH 1M): 0.076 | Impurity RRT 1.698 (30° C./65% RH 1M): 0.065 | Water (30° C./65% RH 1M): 4.16 % W/W | Assay [2]: 98.23 % W/W | Highest Impurity [2]: 0.444 | Impurity RRT 0.935 [2]: 0.396 | Impurity RRT 1.045 [2]: 0.444 | Impurity RRT 1.64 [2]: 0.06 | Total Impurity [2]: 1.44 | Description (30° C./65% RH 2M): White | Impurity RRT 1.096 (30° C./65% RH 2M): 0.242 | Impurity RRT 1.183 (30° C./65% RH 2M): 0.063 | Impurity RRT 1.439 (30° C./65% RH 2M): 0.165 | Impurity RRT 1.596 (30° C./65% RH 2M): 0.074 | Impurity RRT 1.698 (30° C./65% RH 2M): 0.069 | Assay [3]: 98.20 % W/W | Highest Impurity [3]: 0.449 | Impurity RRT 0.935 [3]: 0.411 | Impurity RRT 1.045 [3]: 0.449 | Impurity RRT 1.64 [3]: 0.063 | Total Impurity [3]: 1.54 | Water [3]: 4.16 % W/W | Description (30° C./65% RH 3M): White | Impurity RRT 1.096 (30° C./65% RH 3M): 0.229 | Impurity RRT 1.439 (30° C./65% RH 3M): 0.158 | Impurity RRT 1.596 (30° C./65% RH 3M): 0.074 | Impurity RRT 1.698 (30° C./65% RH 3M): 0.062 | Assay [4]: 98.14 % W/W | Highest Impurity [4]: 0.437 | Impurity RRT 0.935 [4]: 0.399 | Impurity RRT 1.045 [4]: 0.437 | Impurity RRT 1.64 [4]: 0.058 | Total Impurity [4]: 1.42 | Water [4]: 5.02 % W/W | Description (30° C./65% RH 6M): White | Impurity RRT 1.096 (30° C./65% RH 6M): 0.218 | Impurity RRT 1.439 (30° C./65% RH 6M): 0.156 | Impurity RRT 1.596 (30° C./65% RH 6M): 0.070 | Impurity RRT 1.698 (30° C./65% RH 6M): 0.063 | Assay [5]: 98.09 % W/W | Highest Impurity [5]: 0.460 | Impurity RRT 0.935 [5]: 0.409 | Impurity RRT 1.045 [5]: 0.460 | Impurity RRT 1.640 [5]: 0.054 | Total Impurity [5]: 1.430 | Water [5]: 4.96 % W/W | Description (30° C./65% RH 9M): White | Impurity RRT 1.096 (30° C./65% RH 9M): 0.232 | Impurity RRT 1.183 (30° C./65% RH 9M): 0.036 | Impurity RRT 1.439 (30° C./65% RH 9M): 0.182 | Impurity RRT 1.596 (30° C./65% RH 9M): 0.053 | Impurity RRT 1.698 (30° C./65% RH 9M): 0.048 | Assay [6]: 98.07 % W/W | Highest Impurity [6]: 0.442 | Impurity RRT 0.935 [6]: 0.404 | Impurity RRT 1.045 [6]: 0.442 | Impurity RRT 1.640 [6]: 0.058 | Total Impurity [6]: 1.455 | Water [6]: 5.10 % W/W | Description (30° C./65% RH 12M): White | Impurity RRT 0.138 (30° C./65% RH 12M): 0.200 | Impurity RRT 1.096 (30° C./65% RH 12M): 0.192 | Impurity RRT 1.183 (30° C./65% RH 12M): 0.048 | Impurity RRT 1.439 (30° C./65% RH 12M): 0.163 | Impurity RRT 1.596 (30° C./65% RH 12M): 0.065 | Impurity RRT 1.698 (30° C./65% RH 12M): 0.045 | Assay [7]: 98.35 % W/W | Highest Impurity [7]: 0.399 | Impurity RRT 0.935 [7]: 0.399 | Impurity RRT 1.045 [7]: 0.360 | Impurity RRT 1.640 [7]: 0.048 | Total Impurity [7]: 1.520 | Water [7]: 4.87 % W/W | Description (40° C./75% RH 1M): White | Impurity RRT 1.096 (40° C./75% RH 1M): 0.244 | Impurity RRT 1.439 (40° C./75% RH 1M): 0.153 | Impurity RRT 1.596 (40° C./75% RH 1M): 0.080 | Impurity RRT 1.698 (40° C./75% RH 1M): 0.062 | Assay [8]: 98.15 % W/W | Highest Impurity [8]: 0.444 | Impurity RRT 0.935 [8]: 0.404 | Impurity RRT 1.045 [8]: 0.444 | Impurity RRT 1.64 [8]: 0.061 | Total Impurity [8]: 1.45 | Water [8]: 4.71 % W/W | Description (40° C./75% RH 2M): White | Impurity RRT 1.096 (40° C./75% RH 2M): 0.234 | Impurity RRT 1.183 (40° C./75% RH 2M): 0.072 | Impurity RRT 1.439 (40° C./75% RH 2M): 0.175 | Impurity RRT 1.596 (40° C./75% RH 2M): 0.079 | Impurity RRT 1.698 (40° C./75% RH 2M): 0.065 | Assay [9]: 98.19 % W/W | Highest Impurity [9]: 0.457 | Impurity RRT 0.935 [9]: 0.416 | Impurity RRT 1.045 [9]: 0.457 | Impurity RRT 1.64 [9]: 0.066 | Total Impurity [9]: 1.56 | Water [9]: 4.35 % W/W | Description (40° C./75% RH 3M): White | Impurity RRT 1.096 (40° C./75% RH 3M): 0.229 | Impurity RRT 1.439 (40° C./75% RH 3M): 0.165 | Impurity RRT 1.596 (40° C./75% RH 3M): 0.078 | Impurity RRT 1.698 (40° C./75% RH 3M): 0.06 | Assay [10]: 98.09 % W/W | Highest Impurity [10]: 0.442 | Impurity RRT 0.935 [10]: 0.413 | Impurity RRT 1.045 [10]: 0.442 | Impurity RRT 1.64 [10]: 0.056 | Total Impurity [10]: 1.44 | Water [10]: 4.45 % W/W | Description (40° C./75% RH 6M): White | Impurity RRT 0.138 (40° C./75% RH 6M): 0.270 | Impurity RRT 1.096 (40° C./75% RH 6M): 0.217 | Impurity RRT 1.439 (40° C./75% RH 6M): 0.146 | Impurity RRT 1.596 (40° C./75% RH 6M): 0.073 | Impurity RRT 1.698 (40° C./75% RH 6M): 0.052 | Assay [11]: 98.14 % W/W | Highest Impurity [11]: 0.410 | Impurity RRT 0.935 [11]: 0.377 | Impurity RRT 1.045 [11]: 0.410 | Impurity RRT 1.640 [11]: 0.045 | Total Impurity [11]: 1.590 | Water [11]: 5.45 % W/W | Description (Initial): White | Impurity RRT 1.096 (Initial): 0.229 | Impurity RRT 1.439 (Initial): 0.168 | Impurity RRT 1.596 (Initial): 0.075 | Impurity RRT 1.698 (Initial): 0.062 | Assay [12]: 98.45 % W/W | Highest Impurity [12]: 0.457 | Impurity RRT 0.935 [12]: 0.413 | Impurity RRT 1.045 [12]: 0.457 | Impurity RRT 1.64 [12]: 0.057 | Total Impurity [12]: 1.46 | Water [12]: 4.92 % W/W
